Columns and labels:
[1] = molecular target: T1, dopamine D3 receptor (Homo sapiens, UniProt P35462); assay: Functional activity at the dopamine D3 receptor (methods of WO 2004/052372); type: cell-based
Experimental: Activity at the dopamine D3 receptor may be determined using the methods described in WO 2004/052372, which is incorporated herein by reference. […] Selectivity is calculated as the D2 EC50 value divided by the D3 EC50 value.

[2] = Hydrate kinetic stability at 0% RH (isothermal thermogravimetric analysis); type: physicochemical
Experimental: Isothermal gravimetric analysis of 5-[(2R,5S)-5-methyl-4-propylmorpholin-2-yl]pyridin-2-amine di-S-camsylate monohydrate at 40, 45, 80 and 85° C. Material was held at a selected temperature with a 0% RH flow of nitrogen. 5-[(2R,5S)-5-methyl-4-propylmorpholin-2-yl]pyridin-2-amine di S-camsylate salt dehydrates at 85° C., 0% RH. Many hydrates would be lost at 30° C./0% RH.
ThermoGravimetric Analysis (TGA): Manufactured by TA instruments, model 2950. Approximately 8 mg of the sample was held at analysis temperature in an open pan with 0% RH nitrogen flow for a minimum of 30 min. Results are representative of the kinetic stability of the hydrate over the period of time the sample was exposed.

[3] = Water sorption / hygroscopicity (Dynamic Vapour Sorption); type: physicochemical
Experimental: Water sorption of 5-[(2R,5S)-5-methyl-4-propylmorpholin-2-yl]pyridin-2-amine di-S-camsylate monohydrate) at 30° C. Sorption at 90% RH is 0.316%(w/w) of dry weight. This value relates to non-bound water and is in addition to that involved in the crystal lattice.
Dynamic Vapour Sorption (DVS): Automated Sorption Analyser Model DVS-1. Manufactured by Surface Measurements Systems Ltd. UK. Solid (10-20 mg) is exposed to controlled relative humidity (% RH) environment and the weight change recorded over time. The humidity was stepped from 0 to 90 to 0% RH in 15% RH intervals. A rate of sorption of 0.0005%/min needs to be achieved at each humidity before exposure to the next humidity in the method. When a sample is deliquescent equilibrium sorption is not always achieved.

[4] = Hydrate stability under reduced partial pressure (vacuum drying conditions); type: physicochemical; conditions: reduced partial pressure at 40° C.
Description: Typically a pharmaceutical hydrate would be expected to dehydrate within a few hours of exposure to 0% RH. […] This is a much higher temperature than would normally be expected for a hydrated salt. Such kinetic stability is desirable for allowing the compound to be successfully milled prior to formulation. • Many hydrates are not stable to the harsh vacuum drying conditions required in the isolation of a pharmaceutical drug product. However, 5-[(2R,5S)-5-methyl-4-propylmorpholin-2-yl]pyridin-2-amine di-S-camsylate monohydrate would be stable in such a process as, upon exposure to reduced partial pressure at 40° C., the hydrate remains down to 10 mbar.

[5] = molecular target: T1, dopamine D3 receptor; conditions: according to WO2004/052372; cited from earlier work

T1 sequence (P35462 whole entry, species assumed): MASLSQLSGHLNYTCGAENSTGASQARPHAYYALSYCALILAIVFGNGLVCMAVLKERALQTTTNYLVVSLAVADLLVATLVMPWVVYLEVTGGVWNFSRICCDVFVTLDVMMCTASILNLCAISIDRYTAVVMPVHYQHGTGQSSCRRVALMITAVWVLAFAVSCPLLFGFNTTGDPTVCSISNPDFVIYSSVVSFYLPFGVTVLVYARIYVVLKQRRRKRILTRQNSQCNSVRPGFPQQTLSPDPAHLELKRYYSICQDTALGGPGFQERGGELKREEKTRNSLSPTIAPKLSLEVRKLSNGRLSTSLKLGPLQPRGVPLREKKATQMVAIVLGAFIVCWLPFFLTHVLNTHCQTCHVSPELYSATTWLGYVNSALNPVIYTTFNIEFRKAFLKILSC

Compound | EC50 [1] [nM] | selectivity for D3 over D2 ([1]; D2 EC50 value divided by the D3 EC50 value) [fold] | dehydration of the hydrate ([2]; after 3.5 hours, 0% relative humidity (RH) at 30° C.) | temperature at which the dehydration event was observed ([2]; heating in a flow of 0% RH (nitrogen)) [°C] | deliquescence [3] | hygroscopicity [3] | water sorption ([3]; 90% RH, 30° C., non-bound water) | pressure down to which the hydrate remains [4] [mbar] | D3 agonist activity (in words) [5]
CCCN1C[C@@H](c2ccc(N)nc2)OC[C@@H]1C [5-[(2R,5S)-5-methyl-4-propylmorpholin-2-yl]pyridine-2-amine, di((1S)-10-camphorsulfonate)monohydrate] | 21 | 476 | does not dehydrate | 85 | not deliquescent | non-hygroscopic | 0.316 %(w/w) of dry weight | 10 | 
CCCN1C[C@@H](c2ccc(N)nc2)OC[C@@H]1C (single isomer, unassigned) |  |  |  |  | deliquescent |  |  |  | selective D3 agonist

Source: patent US7498329B2, “Salt form of dopamine agonist” (Pfizer Inc., priority 2005, dated 2009)
